# Results published in patent publication US11660319B2, “Compositions comprising bacterial strains” (priority 2017, dated 2023).
# How the values were obtained:
# BALBc mice = experiment: Gene expression in hippocampus, amygdala and prefrontal cortex (qPCR); assay type: in vivo, mouse; settings: amygdala
# Description: Animals were allowed to habituate to their holding room for one week after arrival into the animal unit. They receive oral gavage (200 μL dose) of live biotherapeutics at a dose of 1×10^9 CFU for 6 consecutive days between 15:00 and 17:00. On day 7, the animals are decapitated, and tissues are harvested for experimentation.
# Total RNA was extracted using the mirVana™ miRNA Isolation kit (Ambion/Llife technologies, Paisley, UK) and DNase treated (Turbo DNA-free, Ambion/life technologies) according to the manufacturers recommendations. RNA was quantified using NanoDrop™ spectrophotometer (Thermo Fisher Scientific Inc., Wilmington, Del., USA) according to the manufacturer's instructions. RNA quality was assessed using the Agilent Bioanalyzer (Agilent, Stockport, UK) according to the manufacturer's procedure and an RNA integrity number (RIN) was calculated. RNA with RIN value >7 was used for subsequent experiments. RNA was reverse transcribed to cDNA using the Applied Biosystems High Capacity cDNA kit (Applied Biosystems, Warrington, UK) according to manufacturer's instructions. Briefly, Multiscribe Reverse Transcriptase (50 U/μL) (1)(2)(1)(10) was added as part of RT master mix, incubated for 25° C. for 10 min, 37° C. for 2 h, 85° C. for 5 min and stored at 4° C. Quantitative PCR was carried out using probes (6 carboxy fluorescein-FAM) designed by Applied Biosystems to mouse specific targeted genes, while using β-actin as an endogenous control. Amplification reactions contained 1 μl cDNA, 5 μl of the 2× PCR Master mix (Roche), 900 nM of each primer and were brought to a total of 10 μl by the addition of RNase-free water. All reactions were performed in triplicate using 96-well plates on the LightCycler®480 System. Thermal cycling conditions were as recommended by the manufacturer (Roche) for 55 cycles. To check for amplicon contamination, each run contained no template controls in triplicate for each probe used. Cycle threshold (Ct) values were recorded. Data was normalized using β-actin and transformed using the 2-ΔΔCT method and presented as a fold change vs. control group.
# Expression of genes for neurotransmitter receptors [serotonin receptor 1a(5-HTR1a), dopamine D1 receptor, GABA receptor subunit B1, GABAA receptor, NMDA2A (Grin2A) and NMDA2B (Grin2b) receptor], inflammatory markers [IL-1β, IL6, CD11b, TNFα and TLR4], and endocrine markers [corticosterone releasing factor (CRF), corticosterone releasing factor receptors 1 and 2 (CRFR1, CRFR2), brain-derived neurotrophin factor (BDNF), vasopressin receptor, oxytocin receptor, glucocorticoid receptor and mineralocorticoid receptor] were analysed in brain tissue from the hippocampus, amygdala and prefrontal cortex.
# SHSY5Y = experiment: Neurite outgrowth: microscopy and MAP2 gene expression (qPCR); assay type: cell-based, human
# Description: SHSY5Y were plated in 10 cm petri dishes a density of 2×10^6 cells. After 24 h cells were treated in differentiation medium (growth medium containing 1% FBS without RA) with 10% bacteria supernatants or YCFA+, 10 uM RA, 200 uM hexanoic acid or 200 uM valproic acid, for 17 hrs. There after representative images were taken using phase contrast EVOS XL core microscope at 40×/0.65 magnification. Cells were collected, and total RNA was isolated according to RNeasy mini kit protocol (Qiagen). cDNAs were made using the high capacity cDNA reverse transcription kit (Applied Biosystems). Gene expression was measured using qPCR. GAPDH was used as internal control. Fold change was calculated according to the 2^(−ΔΔct) method.
# Cells were seeded onto 8 well chamber slides (Marienfeld Laboratory Glassware) at 5×10^4 cells/well overnight and were treated with 10% bacterial supernatant for 24 hrs. For differentiation, cells were treated with 10 nM Retinoic acid for 5 days before treating with bacterial supernatant. Cells were then fixed with 4% paraformaldehyde in PBS for 20 minutes at room temperature (RT). Fixed cells were washed with PBS, and permeabilized with 1% Triton X-100 in PBS for 10 minutes. After washing with PBS, the slides were incubated with blocking buffer (4% BSA/PBS) for 1 hr at RT before adding anti-MAP2 antibody (sc-74421, Santa Cruz Biotechnology Inc) diluted in 1% BSA/PBS for 12 hr at 4° C. They were then washed twice with PBS, followed by incubation with Alexa Flour 488 conjugated anti-mouse (Molecular Probes Inc) and Alexa Flour 594 conjugated Phalloidin (ab 176757, Abcam) for 1 hr at RT. After washing 3× with PBS, the slides were mounted with Vectorshield[…] containing DAPI (Sigma, Aldrich). Slides were viewed using a Zeiss Axioscope microscope equipped with a 63×/1.2 W Korr objective and filter sets suitable for detection of the fluorochromes used. Manual exposure times for the digital acquisition of images immuno-labelled with MAP-2 were kept constant allowing comparison between different wells and treatments. Phalloidin (F-actin) and DAPI exposure times varied to suit the field of view. Randomised fields of view were acquired using a QImaging camera controlled by Image Pro Plus software. Images were saved as TIFs and opened in Adobe Photoshop CC 2015.1.2 and overlays of the MAP-2, DAPI and Phalloidion images overlaid and merged. Representative images were selected to illustrate the differences in abundance and location of the proteins examined
# NFκB promoter = NFκB promoter activation in Hek blue TLR4 cells (Quanti Blue); assay type: cell-based, human; settings: 10% bacteria supernatant, 22 h
# Description: Once grown the Human Hek blue cells were plated in 96 well plates at 25,000 cells/well in 4 replicates. One set of cells were treated with α-synuclein A53T (1 ug/mL) alone or with 10% of bacteria supernatant from MRX0029 for 22 h. The second set of cells were treated with LPS (10 ng/mL, from Salmonella enterica serotype Typhimurium, Sigma Aldrich, cat n. L6143) alone or with 10% of bacteria supernatant from MR029 for 22 h. The cells were subsequently spun down and 20 ul of the supernatant was mixed with 200 ul of Quanti Blue reagent (InvivoGen, cat n. rep-qb2), incubated for 2 h and absorbance read at 655 nm.
# class II HDACs = experiment: Specific HDAC activity analysis (fluorogenic assay kit, BPS Bioscience); assay type: biochemical; settings: data not shown
# Description: Specific HDAC inhibition activity was analysed for HDAC1, 2, 3, 4, 5, 6, 9 using fluorogenic assay kits for each type of HDAC (BPS Bioscience, CA). Assays were conducted according to manufacturer's instructions and each sample were performed in replicates. Cell free supernatants were diluted 1 in 10 and exposed to specific HDAC proteins provided in the kit to maintain consistency between methods.
# The specific HDAC inhibition profile of the test bacteria strain was investigated. Specific HDAC inhibition assays (BPS Bioscience, CA) were carried out for Class I and Class II HDACs. The ability of the bacterial strain to inhibit HDAC enzymes was compared to butyrate, hexanoic and valeric acid (FIGS. 14 and 15).
# [1] = test system: U373 astroglioblastoma cells; experiment: ROS generated by TBHP (DCFDA fluorescence); assay type: cell-based, human; settings: 10% bacteria supernatant
substance,measurement,setting,value
Megasphaera massiliensis [MRx0029],expression of CD11b,BALBc mice,increase
same,expression of GABBR1,BALBc mice,increased
same,expression of GABRA2,BALBc mice,significantly increased
same,expression of TLR4,BALBc mice,significantly increased
same,glucocorticoid receptor expression,BALBc mice,increase
same,neurite outgrowth / neuron-like phenotype,"SHSY5Y; undifferentiated SHSY-5Y cells, 10% bacteria supernatant, 200 uM hexanoic acid or 200 uM valproic acid, 17 hrs",induced a neuron-like phenotype
same,MAP2 expression,"SHSY5Y; undifferentiated neuroblastoma cells, qPCR, GAPDH internal control",significantly upregulates
same,activation of the NFκB promoter by LPS,NFκB promoter; LPS 10 ng/mL,inhibited
same,activation of the NFκB promoter by α-synuclein,NFκB promoter; α-synuclein A53T 1 ug/mL,not inhibited
same,Inhibition of class II HDACs,class II HDACs,not as significant
same,generation of ROS,[1],did not have an effect
